The data set in a line: Stability of the antimicrobial agent to melting during processing (activity retained). Format: physicochemical. The method, then: Bundles of the dosed and non-dosed fibres were melted at 170° C. and compressed, to manufacture a number of continuous, smooth, 2 mm thick plastic sheets. The sheets were cut to create 50×50 mm area test pieces, as required by the standard test for Anti Microbial Activity ISO 22196:2007. This test is an appropriate method for assessing the surface antimicrobial activity of plastic materials when micro-organisms are placed onto the test piece.
3-(trihydroxysilyl)propyldimethyl octodecyl ammonium chloride was combined with polypropylene stock at a dosing rate of around 1% by total weight and the mixture melted, before extruding it into fibres. Control fibres were produced by a method identical other than omission of the 3-(trihydroxysilyl)propyldimethyl octodecyl ammonium chloride. The fibres were 0.45 mm with an X shape cross section and 100 mm long.

Results on one molecule are retold here after patent publication US20140326192A1, “ANTIMICROBIAL ANIMAL PRODUCT” (COVENTRY UNIVERSITY, priority 2011, published 2014).

In the case of `CCCCCCCCCCCCCCCCCC[N+](C)(C)CCC[Si](O)(O)O.[Cl-]` [antimicrobial agent, 3-(trihydroxysilyl)propyldimethyl octodecyl ammonium chloride], the “stability to re-melting of the fibres when making the test pieces” value (fibres melted at 170° C. and compressed) is recorded as “sufficiently stable”. For the same molecule, where the note is “melting to 200° C.”, the “stability after melting when making the fibres” value is recorded as “sufficiently stable”.
